Measured values published in patent US20210038668A1, “TRADITIONAL CHINESE MEDICINE COMPOSITION FOR PREVENTING AND/OR TREATING ISCHEMIC REPERFUSION INJURY” (TASLY PHARMACEUTICAL GROUP CO., LTD., priority 2018, published 2021).

Columns and labels:
[1] = test system: blood flow of cerebral cortex; assay: Cerebral blood flow by Laser Doppler Flowmetry; type: in vivo, C57BL/6 mice
Experimental: Mice were anesthetized via intraperitoneal injection by pentobarbital sodium (2%, 45 mg/kg), and neck kin was sterilized. A median incision was cut on the neck, exposed and isolated to obtain arteria carotis communis; a waterproof cushion was used to isolate arteria carotis communis with the length of about 2.5-3 mm from surrounding tissues. The isolated arteria carotis communis was wrapped by a filter paper soaked by 10% FeCl3 for about 1 mm (width), and the filter paper was removed 3 minutes later, the outside of blood vessel was washed by 0.9% normal saline. The waterproof cushion was removed. The neck incision was sutured. The start of Fe3+ stimulation was defined as the beginning of ischemia, and those mice meeting the following conditions were selected into the group: the blood vessel was blocked at the maximum diameter of the neck thrombus 10 minutes after ischemia; the blood flow of the carotid artery distal end was less than 20% of the base value 15 minutes after ischemia; and the thrombus was stable 4.5 hours after ischemia (before reperfusion); the carotid artery vessel at 60% and more of the diameter was blocked by the maximum diameter of the thrombus.
Mice were treated by medicaments or normal saline according to random grouping results 4.5 hours after ischemia. Mice femoral vein was intubated, and left femoral vein was injected tPA (tissue plasminogen activator) or normal saline; right femoral vein was injected the traditional Chinese medicinal composition of the present invention or normal saline; 10% of the total dose was injected via an injection pump, and the rest 90% were continuously injected intravenously for 1 hour with the rate of 0.1 ml/h. Three proportion groups were selected to the traditional Chinese medicinal composition of the present invention respectively below:
A computer-linked Laser Doppler Flowmetry was used to measure the blood flow of cerebral cortex in the dominant region of bilateral middle cerebral arteries. Anesthetized mice were placed on a board in supine position; skin on the parietal bone of both sides was cut to fully expose the parietal bone; a computer-linked low-energy He—Ne laser probe was placed away 16-18 cm on the parietal bone to detect the blood flow of pia mater in the blood supply region of bilateral middle cerebral arteries of mice before ischemia (namely, a base value), 10 minutes after ischemia, 4.5 hours after ischemia (namely, before reperfusion), 1 hour after reperfusion, 2 hours after reperfusion and 24 hours after reperfusion. A cerebral blood flow analysis software LDPIwin 3.1 (PeriScan PIM3 System, PERIMED, Stockholm, Sweden) was used to calculate the blood flow of cerebral cortex in the same region dominated by bilateral MCA.

VE-cadherin = assay: Western blotting of VE-cadherin, endothelial cells after hypoxia/reoxygenation; type: cell-based; details: rat brain endothelial cells, hypoxia 4.5 h/reoxygenation 3 h; tPA 20 mcg/ml alone (model group); T541 400 mcg/ml + tPA 20 mcg/ml
From the text: (§1) Establishment of rat brain endothelial cell H/R model: rat brain endothelial cells were purchased from ATCC, and then subcultured to 5-6 generations in normal conditions for further experiment. […]

Bcl-2 = assay: Western blotting of Bcl-2, endothelial cells after hypoxia/reoxygenation; type: cell-based; details: rat brain endothelial cells, hypoxia 4.5 h/reoxygenation 3 h; tPA 20 mcg/ml alone (model group); T541 400 mcg/ml + tPA 20 mcg/ml
From the text: as §1

8-OHdG = assay: ELISA of 8-OHdG in brain tissue; type: in vivo, C57BL/6 mice; details: brain tissue 24 hours after administration; tPA 10 mg/kg alone or + T541 20 mg/kg or ingredients at Table 7 doses
From the text: To compare the therapeutical effect on reperfusion injury caused by tPA thrombolysis between the traditional Chinese medicinal composition of the present invention and each ingredient (total saponins of Astragalus, the experiment was divided into the following group (tPA is combined with T541, individual ingredient thereof and compatibility of any two ingredients) specifically as follows: tPA+total saponins of Astragalus (tPA+HQ), tPA+ salvianolic acids (tPA+DS), tPA+Panax notoginseng saponins (tPA+SQ), tPA+ total saponins of Astragalus+salvianolic acids (tPA+HQ+DS), tPA+ total saponins of Astragalus+Panax notoginseng saponins (tPA+HQ+SQ), tPA+ salvianolic acids+Panax notoginseng saponins (tPA+DS+SQ) and tPA+T541. Normal saline served as an isovolumetric control. The usage number in each group is 6.
ELISA adsorption kit was used to measure the change on the content of MDA, 8-hydroxyl-2′-deoxyguanosine (8-OHdG), adenosine triphosphate (ATP), adenosine diphosphate (ADP) and adenosine monophosphate (AMP) in the penumbra field of brain tissue cortex of the mode, and the change on the activity of mitochondrial complexes I, II, IV and V. 6 samples were used to repeat the independent experiment for at least three times for each group of data.

[2] = before administration, groups: tPA 10 mg/kg alone, T541 20 mg/kg, T141 12 mg/kg, T582 15 mg/kg each + tPA 10 mg/kg
[3] = iv, tPA 10 mg/kg alone, T541 20 mg/kg, T141 12 mg/kg, T582 15 mg/kg each + tPA 10 mg/kg

tPA: tissue-type plasminogen activator (tPA) for thrombolysis
Cerebral blood flow, 10 minutes after FeCl3 simulation [1, 2]: 55.20 ± 5.69
Cerebral blood flow, Before FeCl3 simulation [1, 2]: 100.25 ± 1.19
recovery of brain blood flow (in words) ([1]; high-dose T541 or tPA simply given, T141, T582 with tPA): no obvious recovery of the brain blood flow
Cerebral blood flow, 5.5 hours after FeCl3 simulation (1 hour after administration) [1, 3]: 47.56 ± 6.13
Cerebral blood flow, 6.5 hours after FeCl3 simulation (2 hours after administration) [1, 3]: 41.46 ± 4.49
Cerebral blood flow, 28.5 hours after FeCl3 simulation (24 hours after administration) [1, 3]: 42.40 ± 4.61
Cerebral blood flow, 4.5 hours after FeCl3 simulation ([1]; start of administration, groups: tPA 10 mg/kg alone, T541 20 mg/kg, T141 12 mg/kg, T582 15 mg/kg each + tPA 10 mg/kg): 49.58 ± 7.44
VE-cadherin/β-actin (VE-cadherin): 0.58 ± 0.07
Bcl-2 (Bcl-2): 0.69 ± 0.12
8-OHdG (8-OHdG): 1.84 ± 0.11
